In patent publication US6562837B1, “Use of tetrahydroisoquinoline compounds for the treatment of septicemia” (Korea Institute of Science & Technology, priority 1998, dated 2003):

What was measured:
α-receptor = experiment: Binding affinity to α-adrenoceptor, [3H]prazosin, rat cerebral cortical membrane; settings: [3H]prazosin 200 pM, 25° C., 30 min, read-out: Dissociation constant Ki (M) for cerebral α-receptor of rat
Description: For this, the cerebral cortex obtained from rats (Sprague-Dawley, 250±20 g; unless particularly mentioned, the same rats were used in the following experiments) was homogeneously mixed with a 20× buffer (50 mM Tris, 5 mM MgSO4, 1 mM EDTA, 1 mM ascorbic acid, pH 7.7) and then, centrifuged three times at 35,000×g for 15 min and the pellet was stored at −70° C. A solution of 5 mg of the pellet in 1 ml of the buffer was incubated, along with [^3H]prazosin (200 pM) and samples, at 25° C. for 30 min followed by adding 10 ml of a buffer (50 mM Tris, pH 7.7) to quench the binding reaction. The resulting solution was filtered through a Whatman GF/C glass microfiber filter which was then shaken for 2 hours while being completely submerged in a scintillation cocktail. The radioactivity was measured using a scintillation counter (Beckman, LS6500)

LPS-induced DIC and MOF = experiment: Indices for bacterial endotoxin (LPS)-induced DIC and MOF in rats; assay type: in vivo; settings: 10 mg/kg and 50 mg/kg orally, vs control given LPS (20 mg/kg) only; for number of platelets in blood: FIG. 3; for prothrombin time (PT): FIG. 4; for activated partial thromboplastin time (aPTT): FIG. 5; for fibrinogen level in blood: FIG. 6; for FDP level in blood: FIG. 7; for S-GOT level in blood: FIG. 8; for S-GPT level in blood: FIG. 9; for BUN level in blood: FIG. 10
Description: Rats (Sprague-Dawley, 250±50 g) were anesthetized with ketamine (250 mg/kg) by injection (i.m.). 30 min later, LPS (20 mg/kg) was infused into the tail vein of the rats over a 3 hour period. Thereafter, blood was harvested from the artery and measured for platelet number, PT, aPTT, fibrinogen level, FDP level, and the levels of S-GOT, S-GPT and BUN. Test drugs were orally administered once a day for two days. One hour after the final administration of the compounds of interest, the rats were anesthetized.
As an anticoagulant, sodium citrate was used. The number of platelets in the blood was measured by use of a platelet counter. Anticoagulant-treated blood was centrifuged at 1,500×g for 10 min and the plasma was obtained for testing.
In order to obtain a prothrombin time (PT), 100 μl of the plasma was added with 50 μl of a thromboplastin reagent (Sigma, U.S.A.) and a clotting time was measured by use of a fibrometer (Becton Dickinson Co., Canada). Before mixing, the plasma and thromboplastin reagent were pre-incubated at 37° C. for 3 min and 5 min, respectively.
For measurement of the aPTT, 100 μl of the plasma was incubated at 37° C. for 3 min and added with 100 μl of an activated partial thromboplastin time reagent (Sigma U.S.A.) and 100 μl of 0.02 M CaCl2 and a clotting time was measured by use of a fibrometer. Before addition, the reagent was pre-incubated at 37° C. for 1 min while CaCl2 was pre-warmed at 37° C.
To determine the fibrinogen level, first, 20 μl of the plasma was mixed with 180 μl of a buffer and incubated at 37° C. for 2 min. To this solution was added 100 μl of a thrombin reagent (Sigma U.S.A.), followed by measuring a clotting time. Then, the fibrinogen level was determined from a calibration curve obtained with a fibrinogen reference.
The FDP level was determined by use of the Thrombo-Wellcotest kit (Murex Biotech Limit, British). To this end, first, each blood sample (non-citrated) was mixed well with a soybean trypsin inhibitor and Bothrops atrox venom and incubated at 37° C. for 30 min. After centrifugation at 1,500×g for 10 min twice, the supernatant serum was diluted with a glycine saline buffer. 50 μl of the diluted serum was mixed with a drop of a latex suspension on a test slide glass and spread uniformly. The slide was placed in a shaker for 2 min and observed for agglutination. The concentration of FDP was determined semi-quantitatively as follows: with 1:0 dilution (−):0 μg/ml, (+):1 μg/ml, (++):2 μg/ml; with 1:1 dilution, (+):3 μg/ml, (++) :4 μg/ml; with 1:2 dilution (+):5 μg/ml, (++):6 μg/ml, etc.
For the assay of S-GOT, S-GPT and BUN, diagnostic kits (Boehringer Mannheim; AST kit for S-GOT, ALT kit for S-GPT, and urea kit for BUN) were used, together with an automatic biochemical analyzer (Hitachi 747), with the help of Green Cross Reference Lab., Korea.
In detail, after oral administration of higenamine or the compounds of Chemical Formulas 1 and 2, LPS (20 mg/kg) was injected into rats over a 3 hour period to cause DIC and MOF. In order to examine the improvement in the indices for DIC and MOF, these test animals were compared with a control which was provided with LPS only.

Rat thoracic aorta = experiment: Relaxation of phenylephrine-contracted isolated rat thoracic aorta; assay type: cell-based
[1] = test system: acute thrombosis in the pulmonary artery; experiment: Acute thrombosis (collagen plus epinephrine i.v.) in mice, recovery from paralysis; assay type: in vivo
Description: A mixture of collagen (300:μg/kg) plus epinephrine (30:μg/kg) was injected into the tail vein of mice (ICR; […], the same mice were employed in all of the following experiments) to induce massive, acute thrombosis in the pulmonary artery. Thus, an acute thrombosis model, in which mice were paralyzed in 1-3 min after the injection and most of them died within 15 min was prepared. To investigate the effect of the compounds of Chemical Formulas 1 and 2 on the acute thrombosis, either of the compounds was orally administered to mice for 1 or 3 days. The intravenous injection of the mixture of collagen and epinephrine was conducted 1 hour after the final oral administration. An observation was taken to examine the mortality change and the recovery from the paralysis and the results are given in Tables 4 and 5, below.
Most of the mice were paralyzed within 1 min after the injection, following dilation of the pupils, difficult breathing, and convulsions. Most of the mice either died within 5 min or were subjected to paralysis for 15 min or longer. Only a few of them recovered from the paralysis.

[2] = 10 mg/kg orally once for three successive days, recovered within 15 min
[3] = 10 mg/kg orally once for three successive days, recovered within 15 min, control 20%
[4] = 50 mg/kg orally once for three successive days, recovered within 15 min
[5] = 50 mg/kg orally once for three successive days, recovered within 15 min, control 20%
[6] = 50 mg/kg orally once, recovered from thrombotic paralysis within 15 min
[7] = 50 mg/kg orally once, recovered within 15 min, control 17%
[8] = 100 mg/kg orally once, recovered from thrombotic paralysis within 15 min
[9] = 100 mg/kg orally once, recovered within 15 min, control 17%

Structure (SMILES)	Ki (α-receptor) [M]	number of platelets in blood (LPS-induced DIC and MOF)	prothrombin time (PT) (LPS-induced DIC and MOF)	activated partial thromboplastin time (aPTT) (LPS-induced DIC and MOF)	fibrinogen level in blood (LPS-induced DIC and MOF)	FDP level in blood (LPS-induced DIC and MOF)	S-GOT level in blood (LPS-induced DIC and MOF)	S-GPT level in blood (LPS-induced DIC and MOF)	BUN level in blood (LPS-induced DIC and MOF)	IC50 (Rat thoracic aorta) [µM]	Mice Recovered, Number [1, 2]	Mice Recovered, % [1, 3] [%]	Mice Recovered, Number [1, 4]	Mice Recovered, % [1, 5] [%]	Mice Recovered, Number [1, 6]	Mice Recovered, % [1, 7] [%]	Mice Recovered, Number [1, 8]	Mice Recovered, % [1, 9] [%]
Oc1cc2c(cc1O)C(Cc1cccc3ccccc13)NCC2 (stereo not drawn) [Compound 1, 1-α-naphthylmethyl-6,7-dihydroxy-1,2,3,4-tetrahydroisoquinoline]	2.7e-07	increased	shortened	shortened	increased	decreased	reduction	reduction	reduction	2.75	3	30	5	42	8	47	9	45
Oc1cc2c(cc1O)C(Cc1ccc3ccccc3c1)NCC2 (stereo not drawn) [Compound 2, 1-β-naphthylmethyl-6,7-dihydroxy-1,2,3,4-tetrahydroisoquinoline]	1.5e-07	increased	shortened	shortened	increased	decreased	reduction	reduction	reduction	2.81	7	70	7	64	14	50	12	50
Oc1ccc(CC2NCCc3cc(O)c(O)cc32)cc1 (stereo not drawn) [Higenamine, reference compound]	1.26e-06	increased	shortened	shortened	increased	decreased	reduction	reduction	reduction	1.02	2	17	5	45	11	37	13	48
